Target: T1, PTK2 (Homo sapiens, UniProt Q05397)
T1 construct: purchased Invitrogen PV3832
Experiment: PTK2 enzyme test, Assay 1 (DELFIA, PT60 antibody)
Assay type: biochemical
Details: 1 h pre-incubation, 1 h kinase reaction, values without *
Protocol: This test uses active PTK2 enzyme (Invitrogen Code PV3832) and poly-Glu-Tyr (4:1, Sigma P-0275) as the kinase substrate. The kinase activity is detected through the phosphorylation of the substrate in a DELFIA™ assay. The phosphorylated substrate is detected with the europium-labelled phosphotyrosine antibody PT60 (Perkin Elmer, No.: AD00400).
In order to determine concentration-activity curves with PTK2-inhibitors the compounds are serially diluted in 10% DMSO/H20 and 10 μL of each dilution are placed in each well of a 96-well microtitre plate (clear plate with a U-shaped base, Greiner No. 650101) (the inhibitors are tested in duplicates) and mixed with 10 μL/well of PTK2 kinase (0.01 μg/well). PTK2 kinase has been correspondingly diluted beforehand with kinase dilution buffer (20 mM TRIS/HCl pH 7.5, 0.1 mM EDTA, 0.1 mM EGTA, 0.286 mM sodium orthovanadate, 10% glycerol with the addition of freshly prepared BSA (fraction V, 1 mg/mL) and DTT (1 mM)). The test compound and the PTK2 kinase are pre-incubated for 1 h at RT and shaken at 500 revolutions per min. The reaction is started by the addition of 10 μL/well poly (Glu,Tyr) substrate (25 μg/well poly (Glu, Tyr), 0.05 μg/well biotinylated poly (Glu,Tyr) dissolved in 250 mM TRIS/HCl pH 7.5, 9 mM DTT)—the final concentration of DMSO is 2%. Then 20 μL of ATP Mix (30 mM TRIS/HCl pH 7.5, 0.02% Brij, 0.2 mM sodium orthovanadate, 10 mM magnesium acetate, 0.1 mM EGTA, 1× phosphatase inhibitor cocktail 1 (Sigma, No.: P2850), 50 μM ATP (Sigma, No.: A3377; 15 mM stock solution)) are added. After 1 h of kinase reaction (the plates are shaken at 500 rpm), the reaction is stopped by the addition of 12 μL/well 100 mM EDTA, pH 8.0 and shaken for a further 5 min at RT (500 rpm). 55 μL of the reaction mixture are transferred into a streptavidin plate (Strepta Well High Bind (transparent, 96-well) made by Roche, No.: 11989685001) and incubated for 1 h at RT (shaking at 500 rpm). Then the microtitre plate is washed three times with 200 μL/well D-PBS (Invitrogen, No. 14190). 100 μL of a solution containing DELFIA Eu-N1 Anti-Phosphotyrosine PT60 antibody (Perkin Elmer, No.: AD0040, diluted 1:2000 in DELFIA test buffer (Perkin Elmer, No.: 1244-111)) is then added and the mixture is incubated for 1 h at RT (shaking at 500 rpm). Then the plate is washed three times with 200 μL/well DELFIA washing buffer (Perkin Elmer, No.: 1244-114), 200 μL/well strengthening solution (Perkin Elmer, No.: 1244-105) are added and the mixture is incubated for 10 min at RT (shaking at 300 rpm).
The time-delayed europium fluorescence is then measured in a microtitre plate reader (VICTOR^3, Perkin Elmer). […] Wells that contain test buffer instead of enzyme are used as a control of the background kinase activity.
The IC50 values are determined from analyses of the concentration activity by iterative calculation with the aid of a sigmoid curve analysis algorithm (FIFTY, based on GraphPAD Prism Version 3.03) with a variable Hill coefficient.

T1 sequence (Q05397 whole entry): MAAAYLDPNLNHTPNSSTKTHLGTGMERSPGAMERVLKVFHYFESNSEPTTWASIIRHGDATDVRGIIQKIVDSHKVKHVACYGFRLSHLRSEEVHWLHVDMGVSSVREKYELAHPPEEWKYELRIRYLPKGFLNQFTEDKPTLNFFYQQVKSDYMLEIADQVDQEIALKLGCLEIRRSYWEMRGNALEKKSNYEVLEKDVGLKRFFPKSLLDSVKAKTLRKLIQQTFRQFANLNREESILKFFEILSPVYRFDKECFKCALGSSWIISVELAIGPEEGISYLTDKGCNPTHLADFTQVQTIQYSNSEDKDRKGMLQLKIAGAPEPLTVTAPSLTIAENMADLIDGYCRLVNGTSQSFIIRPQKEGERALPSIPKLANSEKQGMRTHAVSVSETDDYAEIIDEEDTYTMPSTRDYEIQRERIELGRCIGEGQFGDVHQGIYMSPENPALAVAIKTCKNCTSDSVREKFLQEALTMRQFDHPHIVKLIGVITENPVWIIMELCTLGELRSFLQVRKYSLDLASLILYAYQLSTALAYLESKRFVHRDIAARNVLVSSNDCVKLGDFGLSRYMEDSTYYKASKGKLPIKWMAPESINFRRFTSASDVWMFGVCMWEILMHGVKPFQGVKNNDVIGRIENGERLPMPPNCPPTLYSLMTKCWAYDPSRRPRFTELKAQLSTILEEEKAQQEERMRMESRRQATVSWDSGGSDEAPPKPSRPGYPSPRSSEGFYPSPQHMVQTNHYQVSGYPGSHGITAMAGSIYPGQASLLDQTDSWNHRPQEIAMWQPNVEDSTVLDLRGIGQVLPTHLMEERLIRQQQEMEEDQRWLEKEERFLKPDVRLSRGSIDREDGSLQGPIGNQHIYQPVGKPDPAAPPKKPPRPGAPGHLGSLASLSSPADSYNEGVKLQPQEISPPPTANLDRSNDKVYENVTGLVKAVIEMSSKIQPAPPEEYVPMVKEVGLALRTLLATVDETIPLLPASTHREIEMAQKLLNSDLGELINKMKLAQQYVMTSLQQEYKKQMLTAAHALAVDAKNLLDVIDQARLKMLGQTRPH

Row | IC50 | Compound
1 | 10 nM | COc1cc(C(=O)NC[C@H](O)CO)c(F)cc1Nc1ncc(C(F)(F)F)c(O[C@@H]2Cc3ccccc3[C@H]2N(C)S(C)(=O)=O)n1 [Example 65]
2 | 0.54 nM | COc1cc(C(=O)NCCN(C)C)c(F)cc1Nc1ncc(C(F)(F)F)c(O[C@@H]2Cc3ccccc3[C@H]2NS(C)(=O)=O)n1 [Example 96]
3 | 2 nM | COc1cc(C(=O)NC2CCN(C)CC2)ccc1Nc1ncc(C(F)(F)F)c(O[C@@H]2Cc3ccccc3[C@H]2NC(C)=O)n1 [Example 68, 4-[4-((1R,2R)-1-acetylamino-indan-2-yloxy)-5-trifluoromethyl-pyrimidin-2-ylamino]-3-methoxy-N-(1-methyl-piperidin-4-yl)-benzamide]
4 | 2 nM | COc1cc(C(=O)NCCN2CCN(C)CC2)c(Cl)cc1Nc1ncc(Cl)c(O[C@@H]2Cc3ccccc3[C@H]2N(C)S(C)(=O)=O)n1 [Example 34]
5 | 7 nM | COc1cc(C(=O)N[C@H]2CC[C@H](O)CC2)c(F)cc1Nc1ncc(C(F)(F)F)c(O[C@@H]2Cc3ccccc3[C@H]2N(C)S(C)(=O)=O)n1 [Example 10]
6 | 5 nM | COc1cc(NC(C)=O)ccc1Nc1ncc(C(F)(F)F)c(O[C@@H]2Cc3ccccc3[C@H]2N(C)S(C)(=O)=O)n1 [Example 94]
7 | 5 nM | COc1cc(C(=O)NC[C@H](O)CO)ccc1Nc1ncc(C(F)(F)F)c(O[C@@H]2Cc3ccccc3[C@H]2N(C)S(C)(=O)=O)n1 [Example 49]
8 | 4 nM | COc1cc(C(=O)NCCn2ccnc2C)ccc1Nc1ncc(C(F)(F)F)c(O[C@@H]2Cc3ccccc3[C@H]2N(C)S(C)(=O)=O)n1 [Example 13]
9 | 0.42 nM | COc1cc(C(=O)NC2CCN(C)CC2)c(Cl)cc1Nc1ncc(C(F)(F)F)c(O[C@@H]2CCCC[C@H]2NS(C)(=O)=O)n1 [Example 93]
10 | 6 nM | CONC(=O)c1cc(OC)c(Nc2ncc(C(F)(F)F)c(O[C@@H]3Cc4ccccc4[C@H]3N(C)S(C)(=O)=O)n2)cc1F [Example 1]
11 | 6 nM | COc1cc(C(=O)NCCn2ccnc2C)c(F)cc1Nc1ncc(Cl)c(O[C@@H]2Cc3ccccc3[C@H]2N(C)S(C)(=O)=O)n1 [Example 52]
12 | 1 nM | CONC(=O)c1cc(OC)c(Nc2ncc(Cl)c(O[C@@H]3Cc4ccccc4[C@H]3N(C)S(C)(=O)=O)n2)cc1Cl [Example 38]
13 | 400 nM | COc1cc(C(=O)NC2CCN(C)CC2)ccc1Nc1ncc(C(F)(F)F)c(O[C@H]2Cc3ccccc3[C@@H]2N(C)S(C)(=O)=O)n1 [Example 32]
14 | 2 nM | COc1cc(C(=O)NC2CCN(C)CC2)c(F)cc1Nc1ncc(C(F)(F)F)c(O[C@@H]2Cc3ccccc3[C@H]2N(C)S(C)(=O)=O)n1 [Example 25, 2-fluoro-4-{4-[(1R,2R)-1-(methanesulphonyl-methyl-amino)-indan-2-yloxy]-5-trifluoromethyl-pyrimidin-2-ylamino}-5-methoxy-N-(1-methyl-piperidin-4-yl)-benzamide]
15 | 4 nM | COc1cc(C(=O)NC[C@@H](O)CO)ccc1Nc1ncc(C(F)(F)F)c(O[C@@H]2Cc3ccccc3[C@H]2N(C)S(C)(=O)=O)n1 [Example 50]
16 | 6 nM | COc1cc(C(=O)N[C@H]2CC[C@H](O)CC2)c(F)cc1Nc1ncc(Cl)c(O[C@@H]2Cc3ccccc3[C@H]2N(C)S(C)(=O)=O)n1 [Example 55]
17 | 0.36 nM | COc1cc(C(=O)NCCN(C)C)ccc1Nc1ncc(C(F)(F)F)c(O[C@@H]2CCCC[C@H]2N(C)S(C)(=O)=O)n1 [Example 111]
18 | 13 nM | COc1cc(C(=O)NC[C@@H](O)CO)c(F)cc1Nc1ncc(Cl)c(O[C@@H]2Cc3ccccc3[C@H]2N(C)S(C)(=O)=O)n1 [Example 51]
19 | 2 nM | CS(=O)(=O)N[C@@H]1CCC[C@H]1Oc1nc(Nc2ccc3ncsc3c2)ncc1C(F)(F)F [Example 97]

Row | IC50 | Compound
20 | 2 nM | COc1cc(C(=O)NC2CCN(C)CC2)c(F)cc1Nc1ncc(C(F)(F)F)c(O[C@@H]2CCC[C@H]2NS(C)(=O)=O)n1 [Example 28, 2-fluoro-4-[4-((1R,2R)-2-methanesulphonylamino-cyclopentyloxy)-5-trifluoromethyl-pyrimidin-2-ylamino]-5-methoxy-N-(1-methyl-piperidin-4-yl)-benzamide]
21 | 11 nM | COc1cc(C(=O)NCC(C)(C)C)ccc1Nc1ncc(C(F)(F)F)c(O[C@@H]2Cc3ccccc3[C@H]2N(C)S(C)(=O)=O)n1 [Example 15]
22 | 22 nM | CONC(=O)c1cc(OC)c(Nc2ncc(Cl)c(O[C@@H]3Cc4ccccc4[C@H]3N(C)S(C)(=O)=O)n2)cc1F [Example 43]
23 | 12 nM | COc1cc(C(=O)NCC2CC2)ccc1Nc1ncc(C(F)(F)F)c(O[C@@H]2Cc3ccccc3[C@H]2N(C)S(C)(=O)=O)n1 [Example 21]
24 | 0.28 nM | COc1cc(C(=O)NC2CCN(C)CC2)c(F)cc1Nc1ncc(C(F)(F)F)c(O[C@@H]2CCC[C@H]2N(C)S(C)(=O)=O)n1 [Example 103, 2-fluoro-4-{4-[(1R,2R)-2-(methanesulphonyl-methyl-amino)-cyclopentyloxy]-5-trifluoromethyl-pyrimidin-2-ylamino}-5-methoxy-N-(1-methyl-piperidin-4-yl)-benzamide]
25 | 2 nM | COc1cc(C(=O)NN2CCN(C)CC2)ccc1Nc1ncc(C(F)(F)F)c(O[C@@H]2CCC[C@H]2NS(C)(=O)=O)n1 [Example 73]
26 | 0.61 nM | COc1cc(C(=O)NC2CCN(C)CC2)c(Cl)cc1Nc1ncc(C(F)(F)F)c(O[C@@H]2CCC[C@H]2N(C)S(C)(=O)=O)n1 [Example 102, 2-chloro-4-{4-[(1R,2R)-2-(methanesulphonyl-methyl-amino)-cyclopentyloxy]-5-trifluoromethyl-pyrimidin-2-ylamino}-5-methoxy-N-(1-methyl-piperidin-4-yl)-benzamide]
27 | 4 nM | COc1cc(C(=O)N[C@H]2CC[C@H](N3CCN(CC4CC4)CC3)CC2)ccc1Nc1ncc(C(F)(F)F)c(O[C@@H]2Cc3ccccc3[C@H]2N(C)S(C)(=O)=O)n1 [Example 18]
28 | 0.26 nM | COc1cc(C(=O)NN2CCN(C)CC2)c(Cl)cc1Nc1ncc(C(F)(F)F)c(O[C@@H]2CCC[C@H]2N(C)S(C)(=O)=O)n1 [Example 100, 2-chloro-4-{4-[(1R,2R)-2-(methanesulphonyl-methyl-amino)-cyclopentyloxy]-5-trifluoromethyl-pyrimidin-2-ylamino}-5-methoxy-N-(4-methyl-piperazin-1-yl)-benzamide]
29 | 0.37 nM | COc1cc(C(=O)NN2CCN(C)CC2)c(F)cc1Nc1ncc(Cl)c(O[C@@H]2CCC[C@H]2N(C)S(C)(=O)=O)n1 [Example 88, 4-{5-chloro-4-[(1R,2R)-2-(methanesulphonyl-methyl-amino)-cyclopentyloxy]-pyrimidin-2-ylamino}-2-fluoro-5-methoxy-N-(4-methyl-piperazin-1-yl)-benzamide]
30 | 28 nM | COc1cc(C(=O)N(C)C)c(Cl)cc1Nc1ncc(Cl)c(O[C@@H]2Cc3ccccc3[C@H]2N(C)S(C)(=O)=O)n1 [Example 37]
31 | 4 nM | COc1cc(C(=O)NCCN2CCN(C)CC2)ccc1Nc1ncc(C(F)(F)F)c(O[C@@H]2Cc3ccccc3[C@H]2N(C)S(C)(=O)=O)n1 [Example 16]
32 | 0.37 nM | COc1cc(C(=O)NCCN(C)C)c(F)cc1Nc1ncc(C(F)(F)F)c(O[C@@H]2CCC[C@H]2NS(C)(=O)=O)n1 [Example 99]
33 | 4 nM | COc1cc(C(=O)NN2CCN(C)CC2)ccc1Nc1ncc(C(F)(F)F)c(O[C@@H]2Cc3ccccc3[C@H]2N(C)S(C)(=O)=O)n1 [Example 19]
34 | 3 nM | COc1cc(C(=O)NCC(C)(C)C)c(F)cc1Nc1ncc(C(F)(F)F)c(O[C@@H]2Cc3ccccc3[C@H]2N(C)S(C)(=O)=O)n1 [Example 3]
35 | 3 nM | COc1cc(C(=O)NCCN(C)C)c(Cl)cc1Nc1ncc(Cl)c(O[C@@H]2Cc3ccccc3[C@H]2N(C)S(C)(=O)=O)n1 [Example 40]
36 | 3 nM | COc1cc(NC(=O)C2CCCN(C)C2)ccc1Nc1ncc(C(F)(F)F)c(O[C@@H]2Cc3ccccc3[C@H]2N(C)S(C)(=O)=O)n1 (stereo partly shown) [Example 92]
37 | 5 nM | COc1cc(C(=O)NC2CCN(C)CC2)c(F)cc1Nc1ncc(C(F)(F)F)c(O[C@@H]2CCC[C@H]2NS(=O)(=O)CCl)n1 [Example 45]
